We go through 22 compounds from patent publication US9489013B2, “C6-azaspiro iminothiadiazine dioxides as bace inhibitors, compositions, and their use” (Merck Sharp & Dohme Corp., priority 2012, dated 2016).

The target in assay [1] is soluble human BACE1 catalytic domain (Homo sapiens (Human), UniProt P56817). Nature of the assay: BACE1 HTRF FRET Assay. In kind it is biochemical. Conditions: Ki calculated from IC50 using the Cheng-Prusoff equation; QSY7-APPswe-Eu substrate, pH 5.0. The protocol: A homogeneous time-resolved FRET assay can be used to determine IC50 values for inhibitors of the soluble human BACE1 catalytic domain. […] This substrate contains an N-terminal QSY7 moiety that serves as a quencher of the C-terminal Europium fluorophore (620 nm Em). […] Inhibition of BACE cleavage of the QSY7-APP^swe-Eu substrate by inhibitors is manifested as a suppression of 620 nm fluorescence. […] The reactions are incubated at 30° C. for 1.5 hours. The 620 nm fluorescence is then read on a Rubystar HTRF plate reader (BMG Labtechnologies) using a 50 millisecond delay followed by a 400 millisecond acquisition time window. Inhibitor IC50 values are derived from non-linear regression analysis of concentration response curves.
Sequence of soluble human BACE1 catalytic domain (P56817 75-416): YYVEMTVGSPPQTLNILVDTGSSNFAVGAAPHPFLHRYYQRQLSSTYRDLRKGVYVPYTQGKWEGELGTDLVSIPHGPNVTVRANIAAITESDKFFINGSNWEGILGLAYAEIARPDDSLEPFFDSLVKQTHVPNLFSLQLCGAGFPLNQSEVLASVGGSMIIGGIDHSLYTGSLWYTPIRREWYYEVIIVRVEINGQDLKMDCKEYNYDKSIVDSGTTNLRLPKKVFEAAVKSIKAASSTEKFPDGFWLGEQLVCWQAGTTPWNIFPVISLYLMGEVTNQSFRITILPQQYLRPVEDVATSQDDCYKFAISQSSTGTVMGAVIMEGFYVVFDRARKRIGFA

The target of assay [2] is purified human autoBACE-2 (Homo sapiens (Human), UniProt Q9Y5Z0). Put plainly: BACE-2 Assay (BACE-HTRF assay). Conditions: Ki calculated from IC50 using the Cheng-Prusoff equation, pH 5.0, read-out: BACE2 Ki. In kind it is biochemical. As for the experimental part:
Inhibitor IC50's at purified human autoBACE-2 are determined in a time-resolved endpoint proteolysis assay that measures hydrolysis of the QSY7-[…]-Eu-amide FRET peptide substrate (BACE-HTRF assay). […] Inhibitor compounds, prepared at 3× the desired final concentration in 1×BACE assay buffer (20 mM sodium acetate pH 5.0, 10% glycerol, 0.1% Brij-35) supplemented with 7.5% DMSO are pre-incubated with an equal volume of autoBACE-2 enzyme diluted in 1×BACE assay buffer (final enzyme concentration 1 nM) in black 384-well NUNC plates for 30 minutes at 30° C. […] DMSO is present at 5% final concentration in the assay. Following laser excitation of sample wells at 320 nm, the fluorescence signal at 620 nm is collected for 400 ms following a 50 μs delay on a RUBYstar HTRF plate reader (BMG Labtechnologies). Raw RFU data is normalized to maximum (1.0 nM BACE/DMSO) and minimum (no enzyme/DMSO) RFU values. […] The Ki values are calculated from the IC50 using the Cheng-Prusoff equation.

Setting [3] is: QSY7-EISEVNLDAEFC-Eu-amide substrate.

Like-named read-outs stand apart in the source and are kept apart here.

Sequence of purified human autoBACE-2 (Q9Y5Z0 63-473 limits assumed): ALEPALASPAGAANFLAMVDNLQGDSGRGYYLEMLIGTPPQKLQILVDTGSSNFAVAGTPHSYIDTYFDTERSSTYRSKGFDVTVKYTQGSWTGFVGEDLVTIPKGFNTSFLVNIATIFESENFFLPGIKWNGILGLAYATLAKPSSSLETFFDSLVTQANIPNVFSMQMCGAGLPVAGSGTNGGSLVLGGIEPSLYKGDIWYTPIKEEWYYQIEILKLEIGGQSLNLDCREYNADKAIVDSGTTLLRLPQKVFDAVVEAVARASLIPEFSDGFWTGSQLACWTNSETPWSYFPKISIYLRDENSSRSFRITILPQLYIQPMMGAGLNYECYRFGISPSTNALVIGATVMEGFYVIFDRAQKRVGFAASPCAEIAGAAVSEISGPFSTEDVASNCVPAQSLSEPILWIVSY

By Ki is commonly meant a dissociation constant, usually derived from enzyme kinetics or from competition with a known ligand. For the compound `COc1ccc(C(=O)Nc2ccc(F)c([C@@]3(C)NC(=N)N(C)S(=O)(=O)[C@@]34CCN(Cc3cscn3)C4)c2)nc1` [Example 8], in assay [1], the inhibitory constant (Ki) was 3 nM. On to `COc1ccc(C(=O)Nc2ccc(F)c([C@@]3(C)NC(=N)N(C)S(=O)(=O)[C@@]34CCN(CC3CCOC3)C4)c2)nc1` (stereo partly shown) [Example 9], for which the Ki in assay [1] is 1 nM; in assay [2] (setting [3]) it was 2 nM. On to `COc1ccc(C(=O)Nc2ccc(F)c([C@@]3(C)NC(=N)N(C)S(=O)(=O)[C@@]34CCN(Cc3ccccn3)C4)c2)nc1` [Example 10], for which the inhibition constant Ki in assay [1] was 2 nM. In the case of `COc1ccc(C(=O)Nc2ccc(F)c([C@@]3(C)NC(=N)N(C)S(=O)(=O)[C@@]34CCN(Cc3cccnc3)C4)c2)nc1` [Example 11], the inhibition constant (Ki) is 2 nM in assay [1] and 12 nM in assay [2] (setting [3]).

For the compound `COc1ccc(C(=O)Nc2ccc(F)c([C@@]3(C)NC(=N)N(C)S(=O)(=O)[C@@]34CCN(CC3CC3)C4)c2)nc1` [Example 12], the Ki is 2 nM in assay [1] and 7 nM in assay [2] (setting [3]). For `COc1ccc(C(=O)Nc2ccc(F)c([C@@]3(C)NC(=N)N(C)S(=O)(=O)[C@@]34CCN(Cc3cnco3)C4)c2)nc1` [Example 14] the same measures were 3 nM and 9 nM. Take `COc1ccc(C(=O)Nc2ccc(F)c([C@@]3(C)NC(=N)N(C)S(=O)(=O)[C@@]34CCN(Cc3cncnc3)C4)c2)nc1` [Example 15]: the Ki is 4 nM in assay [1] and 17 nM in assay [2] (setting [3]). Take `COc1ccc(C(=O)Nc2ccc(F)c([C@@]3(C)NC(=N)N(C)S(=O)(=O)[C@@]34CCN(Cc3cnn(C)c3)C4)c2)nc1` [Example 16]: the inhibitory constant (Ki) in assay [1] is 4 nM. As for `COc1ccc(C(=O)Nc2ccc(F)c([C@@]3(C)NC(=N)N(C)S(=O)(=O)[C@@]34CCN(CC3CC(OC)C3)C4)c2)nc1` (stereo partly shown) [Example 17], the inhibition constant Ki in assay [1] was 4 nM. For `CN1C(=N)N[C@](C)(c2cc(NC(=O)c3ccc(F)cn3)ccc2F)[C@]2(CCN(Cc3ccncc3)C2)S1(=O)=O` [Example 29], the results for the Ki in assay [1] and in assay [2] (setting [3]) were 8 nM and 9 nM, respectively. For `CN1C(=N)N[C@](C)(c2cc(NC(=O)c3ccc(F)cn3)ccc2F)[C@]2(CCN(Cc3cnco3)C2)S1(=O)=O` [Example 30], the inhibitory constant (Ki) in assay [1] is 4 nM; in assay [2] (setting [3]) it was 5 nM. Take `CN1C(=N)N[C@](C)(c2cc(NC(=O)c3ccc(F)cn3)ccc2F)[C@]2(CCN(CC3CC3)C2)S1(=O)=O` [Example 31]: the values for the inhibition constant Ki in assay [1] and in assay [2] (setting [3]) were 2 nM and 5 nM, respectively. `CN1C(=N)N[C@](C)(c2cc(NC(=O)c3ccc(F)cn3)ccc2F)[C@]2(CCN(Cc3cscn3)C2)S1(=O)=O` [Example 33]: the inhibition constant (Ki) is 3 nM in assay [1] and 5 nM in assay [2] (setting [3]). For `COC1CC(CN2CC[C@@]3(C2)[C@@](C)(c2cc(NC(=O)c4ccc(F)cn4)ccc2F)NC(=N)N(C)S3(=O)=O)C1` (stereo partly shown) [Example 34] the same measures were 6 nM and 10 nM. For `CN1C(=N)N[C@](C)(c2cc(NC(=O)c3ccc(F)cn3)ccc2F)[C@]2(CCN(Cc3cccnc3)C2)S1(=O)=O` [Example 35] the same measures were 2 nM and 6 nM. `CN1C(=N)N[C@](C)(c2cc(NC(=O)c3ccc(F)cn3)ccc2F)[C@]2(CCN(Cc3cocn3)C2)S1(=O)=O` [Example 37]: the Ki is 2 nM in assay [1] and 5 nM in assay [2] (setting [3]).

For `CN1C(=N)N[C@](C)(c2cc(NC(=O)c3ccc(F)cn3)ccc2F)[C@]2(CCN(Cc3cncnc3)C2)S1(=O)=O` [Example 38], the Ki was 4 nM in assay [1] and 7 nM in assay [2] (setting [3]). As for `CCCCN1CC[C@@]2(C1)[C@@](C)(c1cc(NC(=O)c3ccc(F)cn3)ccc1F)NC(=N)N(C)S2(=O)=O` [Example 39], the Ki in assay [1] was 2 nM; in assay [2] (setting [3]), 3 nM.

`CN1C(=N)N[C@](C)(c2cc(NC(=O)c3ccc(F)cn3)ccc2F)[C@]2(CCN(Cc3cnn(C)c3)C2)S1(=O)=O` [Example 40]: the inhibitory constant (Ki) in assay [1] was 4 nM; in assay [2] (setting [3]), 10 nM. With `CN1C(=N)N[C@](C)(c2cc(NC(=O)c3ccc(F)cn3)ccc2F)[C@]2(CCN(S(=O)(=O)CC3CCCO3)C2)S1(=O)=O` (stereo partly shown) [Example 82], the results for the Ki in assay [1] and in assay [2] (setting [3]) were 4 nM and 10 nM, respectively. Turning to `CN1C(=N)N[C@](C)(c2cc(NC(=O)c3ccc(F)cn3)ccc2F)[C@@]2(CCN(S(=O)(=O)c3ccccc3)C2)S1(=O)=O` [Example 91], the figures for the Ki in assay [1] and in assay [2] (setting [3]) were 16 nM and 6 nM, respectively. Consider `COCC(=O)Nc1ccc(F)c([C@@]2(C)NC(=N)N(C)S(=O)(=O)[C@@]23CCN(Cc2ccccc2)C3)c1` [Example 96], for which the Ki in assay [1] is 22 nM; in assay [2] (QSY7-[…]-Eu-amide substrate), 25 nM.
